# Measured values as given in patent publication US11078175B2, “Substituted dihydrobenzofuran compounds and their use as synergists” (ENDURA S.P.A., priority 2015, dated 2021).
# Legend:
# Bemisia tabaci CYP6CM1 = conditions: recombinant CYP6CM1; 3 μL of 10 mM compound stock in acetone added to 50 μL enzyme; 10 min incubation at room temperature; substrate 7-ethoxycoumarin; acetone-only control
# Method: Ability of the compounds of the invention to inhibit oxidative enzymes (P450), a major mechanism conferring resistance to xenobiotics, was measured using recombinant enzymes corresponding to CYPCM1 from Bemisia tabaci.
# Diluted recombinant enzyme (50 μL) was mixed with 3 μL of a.m compounds stock solutions, with acetone only used as a control. After 10 min incubation at room temperature, 80 μL of 0.125 mM 7-ethoxycoumarin was added, followed by 10 μL 9.6 mM NADPH (nicotinamide adenine dinucleotide phosphate) in 0.1 M sodium phosphate, pH 7.8, and 0-deethylation activity monitored as above. A PBO solution (10 mM) was prepared in the same way as a comparison.
# [1] = target: T1, FE4 Myzus persicae esterases (Myzus persicae, UniProt P35502); assay: Inhibition of esterase enzymes, 4-nitrophenyl acetate substrate with purified FE4; assay type: biochemical; conditions: 2.5 μL of 10 mM compound in acetone added to 50 μL, 10 min incubation, substrate 4-nitrophenyl acetate 0.8 mM final, acetone-only control
# T1 construct: would be utilised for the purified esterases from aphids; from tissue; host or cells: aphids (Myzus persicae)
# T1 sequence (P35502 24-564): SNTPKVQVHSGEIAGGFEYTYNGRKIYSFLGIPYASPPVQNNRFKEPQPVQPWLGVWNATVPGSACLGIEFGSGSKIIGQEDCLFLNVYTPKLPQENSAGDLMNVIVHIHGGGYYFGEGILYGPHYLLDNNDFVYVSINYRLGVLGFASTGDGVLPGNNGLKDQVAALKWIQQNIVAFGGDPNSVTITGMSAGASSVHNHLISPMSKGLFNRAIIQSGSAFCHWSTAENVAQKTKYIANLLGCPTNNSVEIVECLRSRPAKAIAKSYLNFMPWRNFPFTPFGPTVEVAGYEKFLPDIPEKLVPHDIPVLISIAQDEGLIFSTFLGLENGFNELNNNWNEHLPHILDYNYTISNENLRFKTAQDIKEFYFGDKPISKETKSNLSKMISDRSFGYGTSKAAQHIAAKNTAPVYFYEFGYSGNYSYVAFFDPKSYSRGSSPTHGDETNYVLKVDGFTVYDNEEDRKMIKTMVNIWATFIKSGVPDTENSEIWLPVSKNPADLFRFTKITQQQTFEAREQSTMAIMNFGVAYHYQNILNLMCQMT
# Method: It was envisaged, therefore, that the ‘esterase intereference assay’ (Khot et al., 2008) would be utilised for the purified esterases from aphids. Various esterase substrates were assessed to find one suitable of monitoring inhibition in an insect homogenate. The Myzus persicae resistance associated esterase, FE4, was used.
# From the literature (Philippou et al., 2013) it is known that 1-naphthyl acetate is not suitable for this assay. Instead, 4-nitrophenyl acetate was used. A 10 mM pNA stock was prepared in acetone and added to 0.02 M phosphate buffer pH 7.0 (final concentration 2 mM). The comparison was made with 6 PBO analogues of variable efficacy.
# For the assay 10 μL of purified FE4 was diluted to a total volume of 50 μL by the addition of 0.02 M phosphate buffer, pH 7.0 in individual wells of a microplate (maxisorb, NUNC). To each well, 2.5 μL of 10 mM of the compound of Example 1 and of Example 2 in acetone was added and incubated for 10 mins, with acetone only used as a control. Following incubation, 100 μL of 0.02 M phosphate buffer, pH 7.0 and 100 μL of 2 mM 4-nitrophenyl acetate was added (final volume in well 250 μL, final substrate concentration 0.8 mM). Enzyme activity was read at 405 nm in a Spectramax Tmax for 5 min, with readings taken every 5 secs. The rate (mOD min^−1) was calculated by the integrated software, Softmax Pro v.5.4.
SMILES,% activity remaining (Bemisia tabaci CYP6CM1),remaining activity at 10000 µM (stock) [1]
"CCCCCCc1cc2c(c(COCCOCCOCCCC)c1)OCC2 [Compound of Example 2, 5-n-hexyl-7-[[2-(2-Butoxyethoxy)ethoxy]methyl]-2,3-dihydrobenzo furan]",86.22%,40.6%
"CCCCOCCOCCOCc1cc(CCC)cc2c1OCC2 [Compound of Example 1, 5-propyl-7-[[2-(2-Butoxyethoxy)ethoxy]methyl]-2,3-dihydrobenzo furan]",38.47%,33.2%
